Assay results from paper PMC6102213, “Repurposing Thioridazine (TDZ) as an anti-inflammatory agent” (Scientific Reports, 2018).
pIC50: −log10 of the molar value.

Target: T1, IKKβ (Homo sapiens, UniProt O14920)
T1 construct: gene IKBKB
T1 sequence (O14920 1-756): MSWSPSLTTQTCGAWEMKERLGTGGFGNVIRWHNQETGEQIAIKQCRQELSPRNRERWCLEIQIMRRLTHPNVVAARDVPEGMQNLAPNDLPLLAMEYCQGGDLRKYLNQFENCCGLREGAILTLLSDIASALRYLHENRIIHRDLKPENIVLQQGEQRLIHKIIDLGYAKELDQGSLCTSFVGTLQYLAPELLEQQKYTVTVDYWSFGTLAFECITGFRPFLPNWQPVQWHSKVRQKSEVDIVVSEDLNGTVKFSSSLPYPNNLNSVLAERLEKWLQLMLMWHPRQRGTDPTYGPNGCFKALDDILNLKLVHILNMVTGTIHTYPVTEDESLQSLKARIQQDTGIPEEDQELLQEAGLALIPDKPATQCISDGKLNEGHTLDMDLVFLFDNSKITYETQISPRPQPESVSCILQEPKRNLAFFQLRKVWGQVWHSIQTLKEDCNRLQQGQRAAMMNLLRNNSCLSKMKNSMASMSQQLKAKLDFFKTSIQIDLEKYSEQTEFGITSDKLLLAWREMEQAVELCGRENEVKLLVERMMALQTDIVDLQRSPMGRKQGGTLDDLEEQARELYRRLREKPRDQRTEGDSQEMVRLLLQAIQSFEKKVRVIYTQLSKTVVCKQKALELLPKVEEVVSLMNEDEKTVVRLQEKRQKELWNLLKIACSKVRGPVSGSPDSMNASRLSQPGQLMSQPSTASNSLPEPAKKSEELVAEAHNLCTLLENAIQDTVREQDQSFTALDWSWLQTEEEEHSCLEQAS
Experiment: ADP-Glo IKKβ kinase assay (Promega), […] ng IKKβ, IKKtide, […] ATP
Format: biochemical

pIC50: 8.44
SMILES: CSc1ccc2c(c1)N(CCC1CCCCN1C)c1ccccc1S2 (stereo not shown) [TDZ, Thioridazine]
